Test results: a melting point compilation (Tetko et al.; mined from patent text by program, amines drawn as free bases though some values may be those of a salt)
Residues, ends and D or L forms follow the SMILES beside them. *: point of attachment. Cbz = O=C(OCc1ccccc1)*

Point of comparison: `CC(C)=NOc1cc(OCc2ccccc2)ccc1C#N`, melting point 102 °C. Against it:
- CC1Cc2cc(S(=O)(=O)n3cc(-c4ccccc4)[nH]c3=O)ccc2N1C(=O)c1ccc(NC(=O)CCl)cc1 (stereo unspecified) — higher, 246 °C
- COc1ccc(-c2cc(CO)c(=O)n(Cc3ccc(Cl)cc3)n2)cc1F — higher, 165 °C
- COc1ccc(-c2nn(Cc3ccc(Cl)cc3Cl)c(=O)cc2-c2ccncc2)cc1 — higher, 151 to 153 °C
- CCCC(C)(c1ccc(O)cc1)c1ccc(O)cc1 — higher, 151 to 152 °C
- CCCC(CC1CCc2c(cccc2OCC(=O)OC)C1)=NO (stereo unspecified) — lower, 95.9 to 97 °C
- CCCCCCCCCCCCCCCCCCN(CCCCCCCCCCCCCCCCCC)c1ccc([N+](=O)[O-])cc1[N+](=O)[O-] — lower, 55.5 to 57.5 °C
- CN(C)CCCNC(=O)CCCCCCCCCCCNC(N)=NC(=O)c1nc(Cl)c(N)nc1N — lower, 82 to 84 °C
- CCOC(=O)c1c(C(=O)O)c2c(OCc3ccccc3)ccc3c(CC)c(-c4ccc(OCc5ccccc5)cc4)c1n32 — higher, 171 to 173 °C
- CCCCC[C@H]1CC[C@H](CC(=O)c2ccc(-c3ccc(CC)cc3F)cc2)CC1 — lower, 72 to 73 °C
- C=CC1(C)OC(=O)c2ccc(Oc3ccc(C(F)(F)F)cc3Cl)cc21 (stereo unspecified) — lower, 71 to 73 °C
- CN(C)CC#CCN1CCNC1=O — lower, 83 to 87 °C
- CCOC(=O)C(C)=CNc1ccc(OCC)c(C)n1 — higher, 118 to 122 °C
- BrCc1ncc(Br)cn1 — lower, 55 to 57 °C
- COc1cccc(-c2ccnc3c(C#N)cnn23)c1 — higher, 165 to 166 °C
- CCOC(=O)OCC(F)(F)Cn1nc(C)c(-c2ccc3c(c2)NC(=O)CO3)c1-c1ccc(F)cc1 — higher, 142 °C
- CNC(=O)c1ccccc1Nc1nc(Nc2cc3c(cc2OC)N(C)C(=O)OCC3)ncc1Cl — higher, 235 to 237 °C
- CCOC(=O)N1CCN(c2c(F)cc([N+](=O)[O-])c(F)c2CO)CC1 — higher, 147 to 149 °C
- CCc1cc(Oc2ccc([N+](=O)[O-])cc2C(F)(F)F)nn1C(=O)NC — lower, 97 to 100 °C
- Cn1nc(-c2cc(CBr)c(Cl)cc2F)c(Cl)c1C(F)(F)F — higher, 112 to 114 °C
- NC(=O)c1ncn2c1CN=C(c1ccccc1Cl)c1cc(Cl)ccc1-2 — higher, > 300 °C
- COc1ccc(-c2ncc(Cc3ccccc3)nc2-c2ccc(OC)cc2)cc1 — higher, 107 to 109 °C
- OCc1nc2cc(CN3CCN(C(c4ccccc4)c4ccccc4)CC3)ccc2[nH]1 — higher, 137 °C
- CCOc1cccc(OC)c1CN1CCC(=O)C(C(c2ccccc2)c2ccccc2)C1 (stereo unspecified) — higher, 137 to 138 °C
- O=C(O)/C=C/c1ccc(Oc2c(-c3ccccc3)c(CCC(F)(F)F)cc3cc(O)ccc23)cc1 — higher, 118 to 120 °C
- CC12C=CC(=O)C(N)=C1CCC1C2CCC2(C)C(=O)CCC12 (stereo unspecified) — higher, 162 to 169 °C
- Cc1cc2c(cc1C13CC1CCC3=Cc1ccc(C(=O)O)cc1)C(C)(C)CCC2(C)C (stereo unspecified) — higher, 274 to 275 °C
- CCOC(=O)C1C(=O)CC(C)(O)C(C(=O)OCC)C1c1ccc2c(C)c(C)oc2c1 (stereo unspecified) — higher, 183 to 185 °C
- O=CNc1ccc2c(c1)nc(/C=C/c1ccccc1)n2-c1ccccn1 — higher, 190 to 192 °C
- CCc1ccc(C2COc3c(C)c(C)c(N)c(C)c32)cc1 (stereo unspecified) — lower, 88 to 89 °C
- CCCCn1nc(C(F)(F)CCC)nc1Cc1ccc(-c2ccccc2-c2nnn[nH]2)nc1 — higher, 135 to 136 °C
- CCCCCCCCCc1ccc(CCCC(N)(CO)CCO)cc1 (stereo unspecified) — lower, 71 to 73 °C
- CCCCc1nc(CC(=O)OC)c(Cl)n1Cc1ccc(NC(=O)c2ccccc2C(=O)O)cc1 — higher, 150 to 152 °C
- NC(=O)Nc1ccc2c(c1)C(=O)C1(CC1)O2 — higher, 250 to 252 °C
- Cc1nc2ccc(F)cc2c(=O)n1-c1ccccc1Cl — higher, 137 to 138 °C
- C=C(C)c1cc(CC)n(-c2ccc([N+](=O)[O-])cc2)n1 — lower, 61 to 63 °C
- CNC(=O)C1=C(C(=O)Nc2cc(OC3CCCC3)c(Cl)cc2F)CCCC1 — higher, 179 to 180 °C
- O=C1CCC(N2Cc3cc(CNC(=O)Nc4cccc(Cl)c4)ccc3C2=O)C(=O)N1 (stereo unspecified) — higher, 215 to 217 °C
- COC1C(NC(=O)C(F)(F)F)CC(OC2CC(O)(CO)Cc3c(O)c4c(c(O)c32)C(=O)c2ccccc2C4=O)OC1C (stereo unspecified) — higher, 262 to 263 °C
- OCCCc1ccc(SCc2coc(/C=C/c3ccccc3)n2)cc1 — lower, 91 to 92 °C
- COc1cccc(C2CSc3ccccc3NC2=O)c1 (stereo unspecified) — higher, 198 °C
- O=C1O[C@@H](CNC(=S)C(F)F)CN1c1cc(F)c(N2CCS(=O)(=O)CC2)c(F)c1 — lower, 88 to 90 °C
- CC(=O)N1c2ccccc2-c2c([N+](=O)[O-])cnn2C1C (stereo unspecified) — higher, 149 to 150 °C
- CNC(=O)c1ccnc(N2CCN(Cc3ccc(F)cc3)C2=O)c1 — higher, 118 to 120 °C
- O=c1oc2ccc(-c3ccc(F)cc3F)cc2c(=O)n1-c1ccc(Cl)cc1F — higher, 176 to 177 °C
- CCc1ccc(S(=O)(=O)n2c(COC(C)(C)C(=O)O)cc3nc(Cl)ccc32)cc1 — higher, 172 °C
- Cc1cc(C2(C(F)(F)F)CC2(C#N)C#N)ccc1NC(=O)c1cccc(I)c1C(=O)NC(C)C (stereo unspecified) — higher, 218 to 221 °C
- CCOc1ccc([N+](=O)[O-])c(NC)n1 — lower, 101 °C
- CCOC(=O)c1c(NCC(=O)c2ccccc2)c2c(Cl)cc(Cl)cc2n1C(=O)OC(C)(C)C — higher, 143 to 144 °C
- N#Cc1c(-c2ccc(Cl)cc2)[nH]c(C(F)(F)F)c1Sc1ccc(Cl)c(Cl)c1 — lower, 94 to 97 °C
- Cc1ccc(S(=O)(=O)n2c3cccc(CCl)c3c3c(C)ccc(C)c32)cc1 — higher, 149 °C
- NS(=O)(=O)c1cc(C(=O)O)cc(SCc2ccccn2)c1-c1ccccc1 — lower, 83 to 86 °C
- COc1ccc(C(=O)C#CCO)cc1 — lower, 84 to 85 °C
- CCOC(=O)c1cc(CC)sc1Nc1cc(F)cc(F)c1N — higher, 106 °C
- COCCOc1ccc(CCCOC(=O)NS(=O)(=O)NCCc2ccccn2)c(Oc2ncc(C(F)(F)F)cc2Cl)c1 — lower, 91 to 93 °C
- N#Cc1cc(S(=O)c2ccccc2)[nH]c1-c1ccc(Cl)cc1 (stereo unspecified) — higher, 169 to 170 °C
- CC(=O)SCC(C)C(=O)N(C1Cc2ccccc2C1)[C@@H](C)C(=O)O (stereo partly specified) — higher, 140 to 142 °C
- CC(Br)C(=C(C#N)C#N)c1ccccc1 (stereo unspecified) — higher, 103 to 104 °C
- O=C(CNCCO)Nc1ccccn1 — higher, 114 to 115 °C
- O=C(O)c1ccc2c(=O)n(CCCCN3CC=C(c4ccccc4)CC3)c(=O)[nH]c2c1 — higher, 296 to 305 °C
- O=C(CO)NNc1ccnc2c(NC(=O)c3c(Cl)cccc3Cl)cccc12 — higher, 248 to 250 °C
- CC(=O)OC1CSC(Oc2cncc(-c3cnoc3C)c2)C(OC(C)=O)C1OC(C)=O (stereo unspecified) — higher, 127 °C
- CC(=O)OCCn1nc(-c2cc(C(C)(C)C)c(O)c(C(C)(C)C)c2)c2ccc(C)nc21 — not separable, 102 to 103 °C
- CN1CCC(N(CCO)S(=O)(=O)c2ccc(Nc3nccc(Nc4ccc(F)cc4)n3)cc2)CC1 — higher, 125 to 135 °C
- Nc1cc(Cl)ccc1C(=O)NO — higher, 131 to 133 °C
- Cc1cccc(C)c1N1CC(C)N(c2c(C)cccc2C)C1=NCC(=O)O (stereo unspecified) — higher, 307 to 310 °C
- OC1(c2ccccc2)C(c2ccccc2)SC2=NCCCCN21 (stereo unspecified) — not separable, 100 to 103 °C
- C[C@@]1(O)CCCC[C@H]1n1nc(-c2c(-c3ccccc3)nn3ccccc23)ccc1=O (relative stereo) — higher, 197 to 198 °C
- Nc1cn(-c2cccnc2)nc1Cl — lower, 70 to 72 °C
- ON=C(c1ccccc1)c1cc(F)cc(F)c1 — lower, 91 to 93 °C
- Cc1ccc2[nH]c3c(c2c1)CC(C)CC3 (stereo unspecified) — higher, 112 °C
- O=c1c2ccccc2ccn2c(SC(F)(F)F)ccc12 — higher, 137 to 138 °C
- O=c1cc(N2CCNCC2)oc2c1ccc1ccccc12 — higher, 208 to 209 °C
- COc1ccccc1C(=O)OC1=C(c2nnc(-c3ccccc3OC)o2)N(C)S(=O)(=O)c2ccccc21 — higher, 119 to 120 °C
- CCCCc1oc2ccccc2c1C(=O)Nc1ccc(-c2ccc(OCc3nnn[nH]3)cc2)cc1 — higher, 210 to 212 °C
- O=C(Nc1ccc2nc(CN3CCN=C3Cc3ccccc3)ccc2c1)c1ccc(-c2ccc(F)cc2)cc1 — higher, 200 to 202 °C
- COc1cccc(N(C)c2nc(N)nc3[nH]c4ccccc4c23)c1 — higher, 245 to 246 °C
- O=C(NC(=O)c1cccc(C(F)(F)F)c1)NC1CN2CCC1CC2 (stereo unspecified) — higher, 197 to 200 °C
- N#Cc1cc(-c2cc(C(F)F)c3cn[nH]c3n2)ccc1N — higher, 263 °C
- COCCc1nc2c(N)nc3ccccc3c2n1CCOCCCc1ccccc1 — higher, 104 °C
- CCCCOCCOc1ccc(-c2ccc3c(c2)C=C(C(=O)Nc2ccc(CCCn4cnnc4)cc2)CCN3CC(C)C)cc1 — higher, 165 to 167 °C
- O=C(c1ccc(Cl)c(Cl)c1)N1CCc2cc(S(=O)(=O)N3CCN(c4cccc(Cl)c4)CC3)ccc21 — higher, 174 to 175 °C
- N#Cc1ccc(NN)cc1F — higher, 136 °C
- CCNC(=O)C(C)NC(=O)C(C)NC(=O)C1CCCN1C(=O)OCc1ccccc1 (stereo not drawn) (Cbz-Pro-Ala-Ala-NHEt; configuration not given here) — higher, 219 to 220 °C
- CC(=O)OC(C)N1C(=O)/C(=C\c2[nH]c(C)cc2C)c2ccccc21 (stereo unspecified) — higher, 107 to 110 °C
- C[C@@H](n1cnc2cc(N(C)C)c(F)cc2c1=O)[C@](O)(Cn1cncn1)c1ccc(F)cc1F — higher, 197 to 198 °C
- CCCOc1cccnc1C(O)c1ccc(N)cc1 (stereo unspecified) — higher, 156 to 157 °C
- CN1CCC(N(C)c2ncc3ncnc(Nc4ccc(Cl)c([N+](=O)[O-])c4)c3n2)CC1 — higher, 210 to 215 °C
- Clc1ccc2c3c(cnc2c1)OC1(C=N3)CCCCC1 — higher, 216 to 218 °C
- O=[N+]([O-])c1cccnc1NCc1ccccn1 — higher, 114 °C
- O=C(O)c1cc2cc(CCNS(=O)(=O)c3ccc(Cl)cc3)ccc2o1 — higher, 193 to 195 °C
- CC(C)(NCC(O)Cn1ccnc1)c1ccc(Cl)cc1 (stereo unspecified) — lower, 89 to 91 °C
- COc1ccc(-n2c(=O)cc(OC(C)=O)c3ccccc32)cc1 — higher, 174 to 175 °C
- Cc1ccc(-c2noc(-c3ccc4c(c3)C(C)(C)CCC4(C)C)n2)cc1 — higher, 106 to 109 °C
- O=C(O)c1cn(C2CC2)c2c(C(F)(F)F)c(N3CCN(c4ncccn4)CC3)c(F)cc2c1=O — higher, 285 to 287 °C
- CC(C)(C)c1cc(NC(=O)Nc2ccc(OCCN3CCOCC3)c3ccccc23)n(-c2ccccc2)n1 — higher, 142 to 143 °C
